According to ChEMBL document CHEMBL1128431, “Specific sequestering agents for the actinides. 28. Synthesis and initial evaluation of multidentate 4-carbamoyl-3-hydroxyl-1-methyl-2(1H)-pyridinone ligands for in vivo plutonium(IV) chelation” (1995):

Legend:
Mus musculus [1] = test: %Pu(IV) excreted after 24 hr in GI contents and feces under the effect of 30uM/kg(po, gastric intubation) of ligand administered 3 min after iv injection of Pu(IV) citrate; type: functional
Mus musculus [2] = test: % Pu(IV) retained after 24 hours in soft tissue of mice under the effect of 30uM/kg(po, gastric intubation) of ligand administered 3 min after iv injection of Pu(IV) citrate; type: functional
Mus musculus [3] = test: Percent of Pu(IV) excreted after 24 hours in urine under the effect of 30 umol/kg (i.p.) of ligand administered 1 hr after iv injection of Pu(IV) citrate; type: functional
Mus musculus [4] = test: % Pu(IV) retained after 24 hr in whole body of mice under the effect of 30uM/kg(po, gastric intubation) of ligand administered 3 min after iv injection of Pu(IV) citrate; type: functional
Mus musculus [5] = test: Percent of Pu(IV) retained after 24 hours in liver of mice under the effect of 30 umol/kg (i.p.) of ligand administered 1 hr after iv injection of Pu(IV) citrate; type: functional
Mus musculus [6] = test: Percent of Pu(IV) retained after 24 hours in soft tissue of mice under the effect of 30 umol/kg (i.p.) of ligand administered 1 hr after iv injection of Pu(IV) citrate; type: functional
Mus musculus [7] = test: Percent of Pu(IV) retained after 24 hours in whole body of mice under the effect of 30 umol/kg (i.p.) of ligand administered 1 hr after iv injection of Pu(IV) citrate; type: functional
Mus musculus [8] = test: % Pu(IV) retained after 24 hours in liver of mice under the effect of 30uM/kg(po, gastric intubation) of ligand administered 3 min after iv injection of Pu(IV) citrate; type: functional
Mus musculus [9] = test: % Pu(IV) retained after 24 hours in kidneys of mice under the effect of 30uM/kg(po, gastric intubation) of ligand administered 3 min after iv injection of Pu(IV) citrate; type: functional, Kidney
Mus musculus [10] = test: % Pu(IV) excreted at 0-4 hr in urine under the effect of 30uM/kg(po, gastric intubation) of ligand administered 3 min after iv injection of Pu(IV) citrate; type: functional
Mus musculus [11] = test: % Pu(IV) excreted at 4-24 hr in urine under the effect of 30uM/kg(po, gastric intubation) of ligand administered 3 min after iv injection of Pu(IV) citrate
Mus musculus [12] = test: Percent of Pu(IV) retained after 24 hours in skeleton of mice under the effect of 30 umol/kg (i.p.) of ligand administered 1 hr after iv injection of Pu(IV) citrate; type: functional
Mus musculus [13] = test: Percent of Pu(IV) excreted after 24 hours in GI contents and feces under the effect of 30 umol/kg (i.p.) of ligand administered 1 hr after iv injection of Pu(IV) citrate; type: functional
Mus musculus [14] = test: Percent of Pu(IV) retained after 24 hours in kidneys of mice under the effect of 30 umol/kg (i.p.) of ligand administered 1 hr after iv injection of Pu(IV) citrate; type: functional, Kidney
Mus musculus [15] = test: % Pu(IV) retained after 24 hours in skeleton of mice under the effect of 30uM/kg(po, gastric intubation) of ligand administered 3 min after iv injection of Pu(IV) citrate; type: functional

SMILES	ID (Mus musculus [1])	ID (Mus musculus [2])	ID (Mus musculus [3])	ID (Mus musculus [4])	ID (Mus musculus [5])	ID (Mus musculus [6])	ID (Mus musculus [7])	ID (Mus musculus [8])	ID (Mus musculus [9])	ID (Mus musculus [10])	ID (Mus musculus [11])	ID (Mus musculus [12])	ID (Mus musculus [13])	ID (Mus musculus [14])	ID (Mus musculus [15])
O=C(NCCCN(CCCCN(CCCNC(=O)c1cccc(=O)n1O)C(=O)c1cccc(=O)n1O)C(=O)c1cccc(=O)n1O)c1cccc(=O)n1O	51%	13%	25%	24%	8.9%	1.6%	18%	11%	0.1%	23%	2.7%	7.5%	57%	0.2%	12%
Cn1ccc(C(=O)NCCN(CCCCN(CCNC(=O)c2ccn(C)c(=O)c2O)CCNC(=O)c2ccn(C)c(=O)c2O)CCNC(=O)c2ccn(C)c(=O)c2O)c(O)c1=O	8.6%	1.8%	47%	32%	14%	2.1%	29%	17%	1.3%	20%	39%	11%	25%	1.8%	13%
Cn1ccc(C(=O)NCCCCCNC(=O)c2ccn(C)c(=O)c2O)c(O)c1=O	22%	3.2%	18%	54%	3.1%	1.9%	16%	25%	0.8%	10%	13%	10%	67%	0.3%	24%
Cn1ccc(C(=O)NCCCN(CCCNC(=O)c2ccn(C)c(=O)c2O)CCCNC(=O)c2ccn(C)c(=O)c2O)c(O)c1=O	36%	4.3%	55%	60%	17%	2%	33%	28%	0.7%	1.8%	3.6%	14%	12%	0.7%	28%
Cn1ccc(C(=O)NCc2cc(CNC(=O)c3ccn(C)c(=O)c3O)cc(CNC(=O)c3ccn(C)c(=O)c3O)c2)c(O)c1=O	5.2%	7.5%	8%	82%	6.1%	3%	22%	40%	1.2%	6.4%	6%	12%	70%	0.9%	34%
Cn1ccc(C(=O)NCCN(CCCN(CCNC(=O)c2ccn(C)c(=O)c2O)CCNC(=O)c2ccn(C)c(=O)c2O)CCNC(=O)c2ccn(C)c(=O)c2O)c(O)c1=O	22%	3.1%	34%	30%	10%	2.7%	24%	13%	1.2%	16%	33%	9.9%	41%	1.6%	13%
Cn1ccc(C(=O)NCCCNC(=O)c2ccn(C)c(=O)c2O)c(O)c1=O	7.9%	5%	32%	66%	9.5%	2.6%	27%	33%	0.8%	16%	11%	14%	41%	0.5%	27%
Cn1ccc(C(=O)NCCN(CCNC(=O)c2ccn(C)c(=O)c2O)CCN(CCNC(=O)c2ccn(C)c(=O)c2O)CCNC(=O)c2ccn(C)c(=O)c2O)c(O)c1=O	38%	4%	36%	23%	3.8%	2.8%	19%	7.6%	0.4%	12%	27%	11%	45%	1.3%	11%
Cn1ccc(C(=O)NCCCCCCNC(=O)c2ccn(C)c(=O)c2O)c(O)c1=O	9.8%	6.2%	14%	76%	6.5%	3.7%	23%	44%	0.6%	7.3%	6.9%	12%	63%	0.5%	25%
O=C(NCc1cc(CNC(=O)c2cccc(=O)n2O)cc(CNC(=O)c2cccc(=O)n2O)c1)c1cccc(=O)n1O			9.6%		18%	10%	47%					17%	43%	1.8%	
Cn1ccc(C(=O)NCCN(CCNC(=O)c2ccn(C)c(=O)c2O)CCNC(=O)c2ccn(C)c(=O)c2O)c(O)c1=O	34%	1.9%	35%	25%	5.5%	2.7%	20%	8.5%	0.7%	21%	21%	11%	45%	0.7%	13%
CC(=O)N(O)CCCCCNC(=O)CCC(=O)N(O)CCCCCNC(=O)CCC(=O)N(O)CCCCCNC(=O)c1ccn(C)c(=O)c1O	17%	15%	21%	60%	13%	19%	53%	22%	2.4%	2.4%	20%	17%	26%	3%	20%
Cn1ccc(C(=O)NCCCCNC(=O)c2ccn(C)c(=O)c2O)c(O)c1=O	11%	3.2%	19%	55%	3.7%	1.9%	17%	34%	0.5%	26%	8.8%	11%	63%	0.4%	17%
Cn1ccc(C(=O)NCCOCCNC(=O)c2ccn(C)c(=O)c2O)c(O)c1=O	46%	2.9%	28%	34%	2.7%	1.7%	16%	11%	0.8%	14%	7.8%	11%	56%	0.3%	18%
